Results reported in patent US12065428B2, “Anti-viral compounds” (Aligos Therapeutics, Inc., priority 2021, dated 2024).
Read-outs that look alike come from different tables or passages of the source.

How the values were obtained:
human cathepsin L = molecular target: T1, human cathepsin L (Homo sapiens, UniProt P07711); assay: Cathepsin L assay (Z-FR-AMC fluorescence); assay type: biochemical; details: 10 pM human cathepsin L, 30 mins preincubation; class symbols
T1 construct: purchased R&D Systems
T1 sequence (P07711 114-333): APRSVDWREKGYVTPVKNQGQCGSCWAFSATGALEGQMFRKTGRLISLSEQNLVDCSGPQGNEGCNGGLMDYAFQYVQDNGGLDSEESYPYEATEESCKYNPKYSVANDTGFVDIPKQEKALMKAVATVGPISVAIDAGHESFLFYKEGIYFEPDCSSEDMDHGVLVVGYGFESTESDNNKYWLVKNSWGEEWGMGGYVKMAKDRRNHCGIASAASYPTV
Procedure: For the cathepsin L assay, 10 pM of human cathepsin L (R&D Systems; Minneapolis, MN) was preincubated for 30 mins with test compounds. Reactions were initiated by the addition of a peptide substrate Z-FR-AMC (final concentration 2 μM, Anaspec; Fremont, CA). Fluorescence was measured at 2-minute intervals for 30 mins using a 355/460 excitation/emission filter module on an Envision plate reader (Perkin Elmer; Waltham, MA). The IC50 values were calculated for each assay by fitting the curves using a four-parameter equation in GraphPad Prism.

SARS-Cov-2 3CLpro = molecular target: T2, SARS-Cov-2 3CLpro (Severe acute respiratory syndrome coronavirus 2, UniProt P0DTD1); assay: SARS-Cov-2 3CLpro and HRV3C duplex assay (SAMDI-MS): 3CLpro; assay type: biochemical; details: 3CLpro, duplex assay, 30 mins preincubation; class symbols; read-out: SARS-Cov-2 IC50
T2 construct: SARS-Cov-2 3CLpro and HRV3C Duplex Assay

HRV3C = molecular target: T3, HRV3C (Human rhinovirus 14, UniProt P03303); assay: biochemical; details: read-out: HRV IC50
T3 construct: SARS-Cov-2 3CLpro and HRV3C Duplex Assay
T3 sequence (P03303 1538-1719): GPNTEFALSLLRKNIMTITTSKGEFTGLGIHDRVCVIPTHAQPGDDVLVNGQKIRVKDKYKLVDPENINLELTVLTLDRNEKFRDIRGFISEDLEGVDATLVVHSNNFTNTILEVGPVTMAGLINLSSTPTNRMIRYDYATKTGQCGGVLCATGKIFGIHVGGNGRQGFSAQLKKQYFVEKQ

[1] = system: SARS-CoV-2-GHB-03021/2020; assay: microbe, parasite or virus in culture; assay type: cell-based; details: Severe acute respiratory syndrome coronavirus 2, Vero C1008, 96 h; read-out: VeroE6 + CP (EC50)
[2] = Cytotoxicity plates without OC43 virus in HeLa cells; assay type: cell-based; details: human, HeLa cells (uninfected)
Procedure: The human beta-coronavirus OC43 was purchased from ATCC (Manassas, VA) and propagated using HCT-8 human colorectal epithelial cells (ATCC). HeLa human cervical epithelial cells (ATCC) were used as susceptible host cell lines and were cultured using EMEM media, supplemented with 10% fetal bovine serum (FBS), 1% (v/v) penicillin/streptomycin (P/S), 1% (v/v) HEPES and 1% (v/v) cellgro Glutagro™ supplement (all Corning, Manassas, VA) at 37° C. For the OC43 antiviral assay, 1.5×10^4 HeLa cells per well were plated in 100 μL complete media in white 96-well plates with clear bottoms at 37° C. for up to 24 h to facilitate attachment and allow cells to recover from seeding stresses. Next day, the cell culture medium was removed. Serially diluted compounds in 100 μL assay media (EMEM, 2% FBS, 1% P/S, 1% cellgro Glutagro™ supplement, 1% HEPES) were added to the cells and incubated for 4H at 37° C. in a humidified 5% CO2 incubator. 100 μL of OC43 virus stock was diluted to a concentration known to produce optimal cytopathic effect, inducing 80-90% reduction in cell viability. 96-well plates were incubated for 6 (HeLa) days at 33° C.; each plate contains uninfected control wells as well as virus-infected wells that were not treated with compound. Cytotoxicity plates without the addition of OC43 virus were carried out in parallel. At the end of the incubation period, 100 μL cell culture supernatant was replaced with 100 μL cell-titer-glo reagent (Promega, Madison, WI) and incubated for at least 10 min at rt prior to measuring luminescence. Luminescence was measured on a Perkin Elmer (Waltham, MA) Envision plate reader. Antiviral % inhibition was calculated as follows: [(Compound treated cells infected sample)−(no compound infected control)]/[(Uninfected control)−(no compound infected control)]*100; Using GraphPad (San Diego, CA) prism software version 8.3.1, the antiviral dose-response plot was generated as a sigmoidal fit, log(inhibitor) vs response-variable slope (four parameters) model and the EC50 was calculated which is the predicted compound concentration corresponding to a 50% inhibition of the viral cytopathic effect.

[3] = system: human beta-coronavirus OC43; assay: OC43 coronavirus assay in HeLa cells (cytopathic effect, cell-titer-glo); assay type: cell-based
[4] = HRV3C, duplex assay, 30 mins preincubation, class symbols
[5] = Betacoronavirus 1, 144 h, OC43 in HeLa cells, 6 days at 33° C., class symbols, read-out: EC50

| Compound | IC50 (human cathepsin L) [nM] | IC50 (SARS-Cov-2 3CLpro) [nM] | IC50 (HRV3C; [4]) [nM] | EC50 [1] [nM] | CC50 at 6 days ([2]; numeric bound, unit inferred) [nM] | EC50 [3, 5] [nM] | IC50 (HRV3C) [nM] | CC50 at 6 days ([2]; class symbols) [nM] | EC50 ([3]; Betacoronavirus 1, OC43, HeLa) [nM] | IC50 (HRV3C; HRV3C, duplex assay, numeric bound: >10 indicates an IC50>10000 nM) [nM] |
| --- | --- | --- | --- | --- | --- | --- | --- | --- | --- | --- |
| O=C(NC1CC1)C(=O)C(C[C@@H]1CCNC1=O)NC(=O)[C@@H]1[C@@H]2C[C@@H](CC23CC3)N1C(=O)c1ncc(-c2ccccc2)s1 (stereo partly drawn) [Compound 49, N-cyclopropyl-2-oxo-4-[(3S)-2-oxopyrrolidin-3-yl]-3-[(1R,4S,6S)-5-(5-phenyl-1,3-thiazole-2-carbonyl)-5-azaspiro[bicyclo[2.2.1]heptane-2,1′-cyclopropan]-6-ylformamido]butanamide] | ≥ 10000 | 20 to 200 | 2000 to 20000 | < 1000 | > 100000 | 100 to 1000 | – | – | – | – |
| CC(C)(C)[C@H](NC(=O)C(F)(F)F)C(=O)N1[C@H]2C[C@@H]([C@H]1C(=O)N[C@H](C#N)C[C@@H]1CCNC1=O)C1(CC1)C2 [Compound 50, (1R,4S,6S)—N-[(1S)-1-cyano-2-[(3S)-2-oxopyrrolidin-3-yl]ethyl]-5-[(2S)-3,3-dimethyl-2-(2,2,2-trifluoroacetamido)butanoyl]-5-azaspiro[bicyclo[2.2.1]heptane-2,1′-cyclopropane]-6-carboxamide] | ≥ 10000 | < 20 | – | < 1000 | > 100000 | < 100 | > 10000 | – | – | – |
| CC(C)(C)[C@H](NC(=O)C(F)(F)F)C(=O)N1CCC2(C[C@H]1C(=O)N[C@H](C#N)C[C@@H]1CCNC1=O)CC(F)(F)C2 [Compound 51, (S)—N—((S)-1-cyano-2-((S)-2-oxopyrrolidin-3-yl)ethyl)-7-((S)-3,3-dimethyl-2-(2,2,2-trifluoroacetamido)butanoyl)-2,2-difluoro-7-azaspiro[3.5]nonane-6-carboxamide] | ≥ 10000 | 200 to 2000 | – | 1000 to 10000 | > 100000 | 1000 to 10000 | > 10000 | – | – | – |
| O=C(NC1CC1)C(=O)[C@H](C[C@@H]1CCNC1=O)NC(=O)[C@@H]1CC2(CCN1C(=O)c1ncc(-c3ccccc3)s1)CC2 [Example 1, (S)—N—((S)-4-(cyclopropylamino)-3,4-dioxo-1-((S)-2-oxopyrrolidin-3-yl)butan-2-yl)-6-(5-phenylthiazole-2-carbonyl)-6-azaspiro[2.5]octane-5-carboxamide] | ≥ 10000 | 20 to 200 | 200 to 2000 | < 1000 | – | 100 to 1000 | – | 10000 to 100000 | – | – |
| Cn1c(C(=O)N2CCC3(CC3)C[C@H]2C(=O)N[C@@H](C[C@@H]2CCNC2=O)C(=O)CO)cc2ccccc21 [Example 2, (S)—N—((S)-4-hydroxy-3-oxo-1-((S)-2-oxopyrrolidin-3-yl)butan-2-yl)-6-(1-methyl-1H-indole-2-carbonyl)-6-azaspiro[2.5]octane-5-carboxamide] | ≥ 10000 | 20 to 200 | – | 1000 to 10000 | – | 1000 to 10000 | > 10000 | ≥ 100000 | – | – |
| O=C(NC1CC1)C(=O)[C@H](C[C@@H]1CCNC1=O)NC(=O)[C@@H]1CC2(CCN1C(=O)c1nc(-c3ccccc3)cs1)CC2 [Example 3] | ≥ 10000 | 20 to 200 | 2000 to 20000 | 1000 to 10000 | – | 100 to 1000 | – | 10000 to 100000 | – | – |
| Cn1c(C(=O)N2CCC3(CC3)C[C@H]2C(=O)N[C@@H](C[C@@H]2CCNC2=O)C(=O)C(=O)NC2CC2)nc2ccccc21 [Example 4] | ≥ 10000 | 20 to 200 | 2000 to 20000 | 1000 to 10000 | – | 1000 to 10000 | – | ≥ 100000 | – | – |
| Cn1c(C(=O)N2CCC3(CC3)C[C@H]2C(=O)N[C@H](C#N)C[C@@H]2CCNC2=O)cc2ccccc21 [Example 5, (S)—N—((S)-1-cyano-2-((S)-2-oxopyrrolidin-3-yl)ethyl)-6-(1-methyl-1H-indole-2-carbonyl)-6-azaspiro[2.5]octane-5-carboxamide] | ≥ 10000 | 200 to 2000 | – | 1000 to 10000 | – | 1000 to 10000 | > 10000 | ≥ 100000 | – | – |
| O=C(NC1CC1)C(=O)[C@H](C[C@@H]1CCNC1=O)NC(=O)[C@@H]1CC2(CCN1C(=O)C1Cc3ccccc3C1)CC2 [Example 6, (S)—N—((S)-4-(cyclopropylamino)-3,4-dioxo-1-((S)-2-oxopyrrolidin-3-yl)butan-2-yl)-6-(2,3-dihydro-1H-indene-2-carbonyl)-6-azaspiro[2.5]octane-5-carboxamide] | ≥ 10000 | 20 to 200 | 200 to 2000 | < 1000 | – | 100 to 1000 | – | ≥ 100000 | – | – |
| Cn1nc2ccccc2c1C(=O)N1CCC2(CC2)C[C@H]1C(=O)N[C@@H](C[C@@H]1CCNC1=O)C(=O)C(=O)NC1CC1 [Example 7] | 1000 to 10000 | < 20 | 200 to 2000 | 1000 to 10000 | – | 100 to 1000 | – | ≥ 100000 | – | – |
| O=C(NC1CC1)C(=O)[C@H](C[C@@H]1CCNC1=O)NC(=O)[C@@H]1CC2(CCN1C(=O)c1cc3ccccc3n1C1CC1)CC2 [Example 8] | ≥ 10000 | < 20 | 2000 to 20000 | < 1000 | – | 100 to 1000 | – | ≥ 100000 | – | – |
| O=C(NC1CC1)C(=O)[C@H](C[C@@H]1CCNC1=O)NC(=O)[C@@H]1CC2(CCN1C(=O)c1cc3ccccn3n1)CC2 [Example 9] | ≥ 10000 | 200 to 2000 | 2000 to 20000 | 1000 to 10000 | – | 1000 to 10000 | – | ≥ 100000 | – | – |
| Cn1nc(C(=O)N2CCC3(CC3)C[C@H]2C(=O)N[C@@H](C[C@@H]2CCNC2=O)C(=O)C(=O)NC2CC2)c2ccccc21 [Example 10] | ≥ 10000 | 20 to 200 | 200 to 2000 | 1000 to 10000 | – | 1000 to 10000 | – | ≥ 100000 | – | – |
| Cn1cc(C(=O)N2CCC3(CC3)C[C@H]2C(=O)N[C@@H](C[C@@H]2CCNC2=O)C(=O)C(=O)NC2CC2)c2ccccc21 [Example 11] | 1000 to 10000 | 20 to 200 | < 20 | 1000 to 10000 | – | 1000 to 10000 | – | ≥ 100000 | – | – |
| O=C(NC1CC1)C(=O)C(C[C@@H]1CCNC1=O)NC(=O)[C@@H]1CC2(CCN1C(=O)c1cc3cccc(Cl)c3s1)CC2 (stereo partly drawn) [Example 12, (5S)-6-(7-chlorobenzo[b]thiophene-2-carbonyl)-N-(4-(cyclopropylamino)-3,4-dioxo-1-((S)-2-oxopyrrolidin-3-yl)butan-2-yl)-6-azaspiro[2.5]octane-5-carboxamide] | 1000 to 10000 | < 20 | 20 to 200 | < 1000 | – | 100 to 1000 | – | 10000 to 100000 | – | – |
| CN1CCN(c2ccc(C(=O)N3CCC4(CC4)C[C@H]3C(=O)N[C@@H](C[C@@H]3CCNC3=O)C(=O)C(=O)NC3CC3)cc2)CC1 [Example 13, (3S)—N-cyclopropyl-3-{[(5S)-6-[4-(4-methylpiperazin-1-yl)benzoyl]-6-azaspiro[2.5]octan-5-yl]formamido}-2-oxo-4-[(3S)-2-oxopyrrolidin-3-yl]butanamide] | 1000 to 10000 | 200 to 2000 | – | > 50000 | – | – | > 10000 | ≥ 100000 | > 10000 | – |
| N#C[C@H](C[C@@H]1CCNC1=O)NC(=O)[C@@H]1CC2(CCN1C(=O)c1ncc(-c3ccccc3)s1)CC2 [Example 52, (S)—N—((S)-1-cyano-2-((S)-2-oxopyrrolidin-3-yl)ethyl)-6-(5-phenylthiazole-2-carbonyl)-6-azaspiro[2.5]octane-5-carboxamide] | ≥ 10000 | 200 to 2000 | – | 10000 to 100000 | > 100000 | – | – | – | > 10000 | > 10000 |
